From patent US20230310428A1, “EGFR INHIBITOR AND PREPARATION METHOD AND USE THEREOF” (HONGYUN BIOTECH CO., LTD., priority 2020, published 2023)

What was measured:
Assay in all cases: Growth inhibitory activity of compounds on BaF3 cell lines stably transfected with kinase (MTS, 48 h)
Assay type in all cases: cell-based
[1] = biological target: T1, various mutants of kinase EGFR (BaF3 cell lines stably transfected with kinase) (Homo sapiens, UniProt P00533); conditions: BaF3 cells stably transfected with EGFR Δ19Del, read-out: IC50, growth inhibition, Δ19Del
T1 construct: other: BaF3 cells stably transfected with EGFR Δ19Del; MTS, 48 h; other: BaF3 cell line stably transfected with EGFR Δ19Del
Method: (§1) The activity of compounds against various mutants of kinase EGFR was evaluated by their effect of inhibiting growth of BaF3 cell lines stably transfected with kinase. The specific test method was given as follows:
(§2) 1) Culture medium: DMEM (Dulbecco’s modified eagle medium) or RPMI 1640 (containing 10% fetal bovine serum, 100 µg/mL ampicillin, 100 µg/mL streptomycin).
(§3) 2) Reagent: MTS reaction solution (containing 2 mg/mL of MTS [3-(4,5-dimethylthiazol-2-yl)-5-(3-carboxymethoxyphenyl)-2-(4-sulfophenyl)-2H-tetrazoliu m, inner Salt]; 100 µg/mL of PES ([…])).
(§4) 3) Compound test: cells were incubated into a 96-well culture plate, the volume of cytosol was 90 µL, and then 10 µL of the compound at each gradient concentration was added. That is, the highest concentration was 10 µM, which was diluted stepwise by ⅓, and 8 concentration points were set in total; 0.1% DMSO (dimethyl sulfoxide) was contained in the system. The cell plate with uniformly mixed compound was cultured in a cell culture incubator (37° C.; 5% CO2) for 48 h, then 20 µL of MTS reaction solution was added, uniformly mixed and incubated in the cell culture incubator (37° C.; 5% CO2) for 1-4 h. OD values at 490 nm were measured by a microplate reader (VARIOSKAN FLASH, Thermo). Two parallels were set in each group of experiments, with 0.1% (a final concentration) DMSO as a negative control, and a culture medium without cells and compounds as a blank control. The cell growth inhibition rate was calculated by the following formula: […]
(§5) 4) IC50 calculation: The semi-inhibitory concentration of the compounds acting on cells was calculated using GradPad Prism 5 software according to the measured cell growth inhibition rate.

[2] = biological target: T2, various mutants of kinase EGFR (BaF3 cell lines stably transfected with kinase) (Homo sapiens, UniProt P00533, C797S/L858R/T790M); conditions: BaF3 cells stably transfected with EGFR L858R/T790M/C797S, read-out: IC50, growth inhibition, L858R/T790M/C797S
T2 construct: expressed in transfected cells; host or cells: BaF3
Method: as §1, §2, §3, §4, §5

[3] = biological target: T3, various mutants of kinase EGFR (BaF3 cell lines stably transfected with kinase) (Homo sapiens, UniProt P00533, L858R); conditions: BaF3 cells stably transfected with EGFR L858R, read-out: IC50, growth inhibition, L858R
T3 construct: expressed in transfected cells; host or cells: BaF3
Method: as §1, §2, §3, §4, §5

[4] = biological target: T4, various mutants of kinase EGFR (BaF3 cell lines stably transfected with kinase) (Homo sapiens, UniProt P00533, L858R/T790M); conditions: BaF3 cells stably transfected with EGFR L858R/T790M, read-out: IC50, growth inhibition, L858R/T790M
T4 construct: expressed in transfected cells; host or cells: BaF3
Method: as §1, §2, §3, §4, §5

[5] = biological target: T5, various mutants of kinase EGFR (BaF3 cell lines stably transfected with kinase) (Homo sapiens, UniProt P00533, T790M/C797S, form not given); conditions: BaF3 cells stably transfected with EGFR Δ19Del/T790M/C797S, read-out: IC50, growth inhibition, Δ19Del/T790M/C797S
T5 construct: other: BaF3 cells stably transfected with EGFR Δ19Del/T790M/C797S; MTS, 48; other: BaF3 cell line stably transfected with EGFR Δ19Del/T790M/C7
Method: as §1, §2, §3, §4, §5

[6] = biological target: T6, various mutants of kinase EGFR (BaF3 cell lines stably transfected with kinase) (Homo sapiens, UniProt P00533, T790M, form not given); conditions: BaF3 cells stably transfected with EGFR Δ19Del/T790M, read-out: IC50, growth inhibition, Δ19Del/T790M
T6 construct: other: BaF3 cells stably transfected with EGFR Δ19Del/T790M; MTS, 48 h; other: BaF3 cell line stably transfected with EGFR Δ19Del/T790M; MTS, 48
Method: as §1, §2, §3, §4, §5

T1 sequence (P00533 with tags, fused parts or gaps DEL746-750): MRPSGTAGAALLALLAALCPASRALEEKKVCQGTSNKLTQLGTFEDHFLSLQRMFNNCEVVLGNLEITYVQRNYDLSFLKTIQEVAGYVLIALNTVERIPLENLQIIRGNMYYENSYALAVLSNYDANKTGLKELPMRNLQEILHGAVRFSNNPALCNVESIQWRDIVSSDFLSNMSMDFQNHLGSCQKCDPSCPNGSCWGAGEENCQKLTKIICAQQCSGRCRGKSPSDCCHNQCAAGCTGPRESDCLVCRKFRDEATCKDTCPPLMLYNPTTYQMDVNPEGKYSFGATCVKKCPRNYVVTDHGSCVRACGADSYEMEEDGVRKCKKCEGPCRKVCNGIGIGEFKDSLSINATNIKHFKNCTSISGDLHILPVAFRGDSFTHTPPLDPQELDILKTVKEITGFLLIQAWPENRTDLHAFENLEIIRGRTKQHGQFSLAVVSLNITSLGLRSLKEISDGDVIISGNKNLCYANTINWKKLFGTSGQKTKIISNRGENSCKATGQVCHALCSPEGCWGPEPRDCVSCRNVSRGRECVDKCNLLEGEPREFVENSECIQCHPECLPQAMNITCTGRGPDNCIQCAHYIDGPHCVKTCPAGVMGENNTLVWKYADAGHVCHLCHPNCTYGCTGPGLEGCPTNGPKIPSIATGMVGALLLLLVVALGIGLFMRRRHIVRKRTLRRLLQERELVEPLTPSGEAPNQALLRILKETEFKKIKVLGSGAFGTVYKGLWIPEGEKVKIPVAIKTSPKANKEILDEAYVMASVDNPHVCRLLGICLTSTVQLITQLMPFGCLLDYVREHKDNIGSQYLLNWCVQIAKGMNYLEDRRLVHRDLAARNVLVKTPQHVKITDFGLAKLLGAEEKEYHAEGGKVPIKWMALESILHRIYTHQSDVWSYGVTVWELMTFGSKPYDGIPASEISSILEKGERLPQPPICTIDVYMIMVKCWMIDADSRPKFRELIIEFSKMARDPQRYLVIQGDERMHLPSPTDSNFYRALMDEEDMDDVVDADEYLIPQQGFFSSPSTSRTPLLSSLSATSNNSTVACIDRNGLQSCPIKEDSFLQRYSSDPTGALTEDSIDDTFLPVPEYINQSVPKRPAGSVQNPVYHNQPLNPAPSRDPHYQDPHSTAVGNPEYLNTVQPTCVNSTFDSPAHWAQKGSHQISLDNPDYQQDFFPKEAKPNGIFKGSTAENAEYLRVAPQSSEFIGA
T2 sequence (P00533 25-1210 T790M/C797S/L858R): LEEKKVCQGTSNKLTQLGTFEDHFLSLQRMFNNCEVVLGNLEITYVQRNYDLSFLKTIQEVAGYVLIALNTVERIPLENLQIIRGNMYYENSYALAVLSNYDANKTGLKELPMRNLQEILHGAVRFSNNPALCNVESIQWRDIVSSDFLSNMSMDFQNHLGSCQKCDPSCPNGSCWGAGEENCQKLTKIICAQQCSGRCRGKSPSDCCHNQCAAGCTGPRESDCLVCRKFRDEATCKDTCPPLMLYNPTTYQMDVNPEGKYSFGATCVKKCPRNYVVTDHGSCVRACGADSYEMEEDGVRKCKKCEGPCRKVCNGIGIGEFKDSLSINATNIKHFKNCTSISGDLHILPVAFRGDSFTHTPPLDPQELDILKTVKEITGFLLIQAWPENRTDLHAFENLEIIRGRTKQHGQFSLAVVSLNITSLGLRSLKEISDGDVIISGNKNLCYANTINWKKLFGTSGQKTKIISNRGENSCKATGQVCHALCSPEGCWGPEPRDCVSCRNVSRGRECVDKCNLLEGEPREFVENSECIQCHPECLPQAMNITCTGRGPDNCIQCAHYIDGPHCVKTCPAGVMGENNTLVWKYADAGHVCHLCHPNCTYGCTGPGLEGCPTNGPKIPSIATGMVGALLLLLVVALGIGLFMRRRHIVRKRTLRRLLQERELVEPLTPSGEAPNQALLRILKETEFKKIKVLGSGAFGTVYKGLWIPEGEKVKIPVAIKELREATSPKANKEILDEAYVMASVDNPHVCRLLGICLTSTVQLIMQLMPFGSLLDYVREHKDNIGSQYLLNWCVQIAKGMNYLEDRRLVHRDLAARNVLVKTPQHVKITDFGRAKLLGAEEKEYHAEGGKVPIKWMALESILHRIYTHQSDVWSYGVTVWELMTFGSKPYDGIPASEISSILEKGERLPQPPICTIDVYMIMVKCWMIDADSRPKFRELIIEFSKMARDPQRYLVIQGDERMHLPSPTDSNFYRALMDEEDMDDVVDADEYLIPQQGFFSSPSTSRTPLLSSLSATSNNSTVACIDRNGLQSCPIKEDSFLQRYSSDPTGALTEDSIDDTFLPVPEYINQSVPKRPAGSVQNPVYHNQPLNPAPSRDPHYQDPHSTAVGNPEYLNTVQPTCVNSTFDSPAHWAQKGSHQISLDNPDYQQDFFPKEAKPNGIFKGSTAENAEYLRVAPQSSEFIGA
T4 sequence (P00533 25-1210 T790M/L858R): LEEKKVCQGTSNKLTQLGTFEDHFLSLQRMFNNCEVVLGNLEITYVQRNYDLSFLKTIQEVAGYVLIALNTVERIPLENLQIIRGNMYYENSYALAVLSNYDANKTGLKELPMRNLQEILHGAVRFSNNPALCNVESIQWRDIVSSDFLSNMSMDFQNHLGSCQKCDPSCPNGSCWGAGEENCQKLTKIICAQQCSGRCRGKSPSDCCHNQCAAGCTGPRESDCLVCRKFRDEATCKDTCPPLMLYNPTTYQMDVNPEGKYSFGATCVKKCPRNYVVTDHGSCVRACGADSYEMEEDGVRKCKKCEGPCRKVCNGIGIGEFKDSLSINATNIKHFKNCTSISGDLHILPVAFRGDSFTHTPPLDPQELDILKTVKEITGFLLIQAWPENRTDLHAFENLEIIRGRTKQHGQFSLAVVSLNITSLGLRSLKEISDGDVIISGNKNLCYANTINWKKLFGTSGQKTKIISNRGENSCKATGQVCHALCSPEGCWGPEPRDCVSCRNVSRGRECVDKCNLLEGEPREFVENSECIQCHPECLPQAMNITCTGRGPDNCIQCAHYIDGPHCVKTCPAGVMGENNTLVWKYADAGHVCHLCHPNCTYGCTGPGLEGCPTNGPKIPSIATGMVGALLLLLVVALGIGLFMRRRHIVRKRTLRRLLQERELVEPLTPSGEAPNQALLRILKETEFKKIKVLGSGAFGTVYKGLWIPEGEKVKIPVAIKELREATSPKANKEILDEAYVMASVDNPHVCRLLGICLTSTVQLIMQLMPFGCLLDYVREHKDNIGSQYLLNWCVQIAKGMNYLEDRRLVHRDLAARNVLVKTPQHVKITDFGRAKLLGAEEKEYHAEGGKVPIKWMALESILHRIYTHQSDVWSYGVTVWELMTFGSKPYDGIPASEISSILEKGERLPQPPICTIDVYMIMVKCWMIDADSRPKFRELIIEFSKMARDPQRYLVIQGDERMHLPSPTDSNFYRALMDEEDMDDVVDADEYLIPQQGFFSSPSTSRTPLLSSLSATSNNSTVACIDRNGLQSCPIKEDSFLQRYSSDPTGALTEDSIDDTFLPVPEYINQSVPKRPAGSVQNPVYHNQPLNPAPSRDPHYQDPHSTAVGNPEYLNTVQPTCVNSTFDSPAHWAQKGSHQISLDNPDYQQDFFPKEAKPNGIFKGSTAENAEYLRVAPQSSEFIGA
T6 sequence (P00533 with tags, fused parts or gaps DEL746-750/T790M, form open): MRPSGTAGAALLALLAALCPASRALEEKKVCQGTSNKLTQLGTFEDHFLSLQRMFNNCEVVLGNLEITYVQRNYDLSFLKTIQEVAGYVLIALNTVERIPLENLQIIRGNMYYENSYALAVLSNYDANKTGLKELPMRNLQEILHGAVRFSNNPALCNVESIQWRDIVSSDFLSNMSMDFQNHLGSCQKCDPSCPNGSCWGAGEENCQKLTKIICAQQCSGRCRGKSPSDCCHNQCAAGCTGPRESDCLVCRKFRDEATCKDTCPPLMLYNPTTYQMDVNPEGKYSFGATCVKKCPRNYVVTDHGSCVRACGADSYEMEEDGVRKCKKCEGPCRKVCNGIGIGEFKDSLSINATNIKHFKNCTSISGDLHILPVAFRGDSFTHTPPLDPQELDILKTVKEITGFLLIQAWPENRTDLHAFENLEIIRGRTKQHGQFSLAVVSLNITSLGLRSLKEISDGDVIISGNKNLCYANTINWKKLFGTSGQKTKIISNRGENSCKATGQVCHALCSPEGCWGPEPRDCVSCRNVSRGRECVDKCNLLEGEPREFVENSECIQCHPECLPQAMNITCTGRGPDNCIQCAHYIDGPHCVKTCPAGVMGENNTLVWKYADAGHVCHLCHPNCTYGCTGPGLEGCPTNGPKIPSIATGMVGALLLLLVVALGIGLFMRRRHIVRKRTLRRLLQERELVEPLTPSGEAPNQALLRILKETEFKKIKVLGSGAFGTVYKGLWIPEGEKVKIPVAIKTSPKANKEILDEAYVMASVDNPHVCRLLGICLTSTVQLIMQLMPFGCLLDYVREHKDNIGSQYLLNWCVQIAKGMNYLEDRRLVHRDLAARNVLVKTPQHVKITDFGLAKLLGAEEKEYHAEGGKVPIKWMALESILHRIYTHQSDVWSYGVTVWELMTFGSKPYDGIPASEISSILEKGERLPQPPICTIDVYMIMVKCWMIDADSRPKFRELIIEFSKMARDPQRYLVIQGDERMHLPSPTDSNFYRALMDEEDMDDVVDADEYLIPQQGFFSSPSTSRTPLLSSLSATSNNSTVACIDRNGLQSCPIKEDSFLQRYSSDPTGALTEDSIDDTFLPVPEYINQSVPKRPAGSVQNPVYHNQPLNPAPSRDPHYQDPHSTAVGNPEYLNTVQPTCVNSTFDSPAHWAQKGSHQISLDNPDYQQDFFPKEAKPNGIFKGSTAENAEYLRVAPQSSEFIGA

| SMILES | IC50 [1] | IC50 [2] | IC50 [3] | IC50 [4] | IC50 [5] | IC50 [6] |
| --- | --- | --- | --- | --- | --- | --- |
| Cc1cc(Nc2ncc(Br)c(Nc3ccc4nccnc4c3N(C)S(C)(=O)=O)n2)c(OC(C)C)cc1C1CCN(C)CC1 [Compound I-37] | 500 to 2500 nM | 50 to 500 nM | 500 to 2500 nM | 50 to 500 nM | ≤ 50 nM | 50 to 500 nM |
| CCOc1cc(N2CCN(C)CC2)ccc1Nc1ncc(Br)c(Nc2ccc3nccnc3c2N(C)S(C)(=O)=O)n1 [Compound I-39] | 500 to 2500 nM | ≤ 50 nM | 500 to 2500 nM | 50 to 500 nM | ≤ 50 nM | 50 to 500 nM |
| CN1CCN(c2ccc(Nc3ncc(Br)c(Nc4ccc5nccnc5c4N(C)S(C)(=O)=O)n3)cc2)CC1 [Compound I-40] | ≤ 50 nM | ≤ 50 nM | ≤ 50 nM | ≤ 50 nM | ≤ 50 nM | ≤ 50 nM |
| COc1cc(N2CCC(N(C)C)C2)ccc1Nc1ncc(Br)c(Nc2ccc3nccnc3c2N(C)S(C)(=O)=O)n1 (stereo not drawn) [Compound I-43] | 50 to 500 nM | ≤ 50 nM | 50 to 500 nM | ≤ 50 nM | ≤ 50 nM | ≤ 50 nM |
| COc1cc(N2CCC(O)CC2)ccc1Nc1ncc(Br)c(Nc2ccc3nccnc3c2N(C)S(C)(=O)=O)n1 [Compound I-44] | 50 to 500 nM | ≤ 50 nM | 50 to 500 nM | ≤ 50 nM | ≤ 50 nM | ≤ 50 nM |
| COc1cc(N2CCOCC2)ccc1Nc1ncc(Br)c(Nc2ccc3nccnc3c2N(C)S(C)(=O)=O)n1 [Compound I-45] | 50 to 500 nM | ≤ 50 nM | 50 to 500 nM | 50 to 500 nM | ≤ 50 nM | 50 to 500 nM |
| CN1CCN(S(=O)(=O)c2ccc(Nc3ncc(Br)c(Nc4ccc5nccnc5c4N(C)S(C)(=O)=O)n3)cc2)CC1 [Compound I-49] | 50 to 500 nM | 50 to 500 nM | 50 to 500 nM | 50 to 500 nM | 50 to 500 nM | 50 to 500 nM |
| CN(c1c(Nc2nc(Nc3ccc(S(=O)(=O)NC4CC4)cc3)ncc2Br)ccc2nccnc12)S(C)(=O)=O [Compound I-50] | 50 to 500 nM | 50 to 500 nM | 50 to 500 nM | ≤ 50 nM | 500 to 2500 nM | 50 to 500 nM |
| COc1nc(N2CCN(C)CC2)ccc1Nc1ncc(Br)c(Nc2ccc3nccnc3c2N(C)S(C)(=O)=O)n1 [Compound I-55] | 50 to 500 nM | 50 to 500 nM | 50 to 500 nM | 50 to 500 nM | 50 to 500 nM | 50 to 500 nM |
| CN1CCN(c2ccc(Nc3ncc(Br)c(Nc4ccc5nccnc5c4N(C)S(C)(=O)=O)n3)cn2)CC1 [Compound I-56] | ≤ 50 nM | ≤ 50 nM | ≤ 50 nM | ≤ 50 nM | ≤ 50 nM | ≤ 50 nM |
| Cc1ccc(Nc2ncc(Br)c(Nc3ccc4nccnc4c3N(C)S(C)(=O)=O)n2)cn1 [Compound I-63] | ≤ 50 nM | 50 to 500 nM | 50 to 500 nM | ≤ 50 nM | 50 to 500 nM | ≤ 50 nM |
| CN(c1c(Nc2nc(Nc3ccn(C)n3)ncc2Br)ccc2nccnc12)S(C)(=O)=O [Compound I-66] | 50 to 500 nM | 50 to 500 nM | 50 to 500 nM | ≤ 50 nM | 50 to 500 nM | 50 to 500 nM |
| CN(c1c(Nc2nc(Nc3cnn(C)c3)ncc2Br)ccc2nccnc12)S(C)(=O)=O [Compound I-67] | ≤ 50 nM | ≤ 50 nM | 50 to 500 nM | ≤ 50 nM | 50 to 500 nM | ≤ 50 nM |
| CN(c1c(Nc2nc(NC3CC3)ncc2Br)ccc2nccnc12)S(C)(=O)=O [Compound I-73] | 500 to 2500 nM | 500 to 2500 nM | 500 to 2500 nM | 50 to 500 nM | 500 to 2500 nM | 50 to 500 nM |
| CN(c1c(Nc2nc(Nc3cccc(N4CCC(O)CC4)c3)ncc2Br)ccc2nccnc12)S(C)(=O)=O [Compound I-76] | 50 to 500 nM | ≤ 50 nM | 500 to 2500 nM | ≤ 50 nM | 50 to 500 nM | 50 to 500 nM |

Further lines, results first:

| IC50 [1] | IC50 [2] | IC50 [3] | IC50 [4] | IC50 [5] | IC50 [6] | SMILES |
| --- | --- | --- | --- | --- | --- | --- |
| 50 to 500 nM | 50 to 500 nM | 50 to 500 nM | 50 to 500 nM | 50 to 500 nM | 50 to 500 nM | COc1cc(N2CCC(N3CCN(C)CC3)CC2)c(C)cc1Nc1ncc(C#N)c(Nc2ccc3nccnc3c2N(C)S(C)(=O)=O)n1 [Compound I-28] |
| 50 to 500 nM | ≤ 50 nM | 50 to 500 nM | 50 to 500 nM | 50 to 500 nM | 50 to 500 nM | CCc1cc(Nc2ncc(C#N)c(Nc3ccc4nccnc4c3N(C)S(C)(=O)=O)n2)c(OC)cc1N1CCC(N2CCN(C)CC2)CC1 [Compound I-29] |
| 500 to 2500 nM | 500 to 2500 nM | 500 to 2500 nM | 50 to 500 nM | 50 to 500 nM | 500 to 2500 nM | COc1cc(N2CCC(N3CCN(C)CC3)CC2)ccc1Nc1ncc([N+](=O)[O-])c(Nc2ccc3nccnc3c2N(C)S(C)(=O)=O)n1 [Compound I-30] |
| 50 to 500 nM | ≤ 50 nM | ≤ 50 nM | ≤ 50 nM | ≤ 50 nM | 50 to 500 nM | COc1cc(N2CCC(N3CCN(C)CC3)CC2)c(C)cc1Nc1ncc([N+](=O)[O-])c(Nc2ccc3nccnc3c2N(C)S(C)(=O)=O)n1 [Compound I-31] |
| ≤ 50 nM | ≤ 50 nM | ≤ 50 nM | ≤ 50 nM | ≤ 50 nM | ≤ 50 nM | CCc1cc(Nc2ncc([N+](=O)[O-])c(Nc3ccc4nccnc4c3N(C)S(C)(=O)=O)n2)c(OC)cc1N1CCC(N2CCN(C)CC2)CC1 [Compound I-32] |
| 50 to 500 nM | 50 to 500 nM | ≤ 50 nM | ≤ 50 nM | ≤ 50 nM | ≤ 50 nM | COc1cc(N2CCC(N3CCN(C)CC3)CC2)ccc1Nc1ncc(C(F)(F)F)c(Nc2ccc3nccnc3c2N(C)S(C)(=O)=O)n1 [Compound I-33] |
| ≤ 50 nM | ≤ 50 nM | ≤ 50 nM | ≤ 50 nM | ≤ 50 nM | ≤ 50 nM | COc1cc(N2CCC(N3CCN(C)CC3)CC2)c(C)cc1Nc1ncc(C(F)(F)F)c(Nc2ccc3nccnc3c2N(C)S(C)(=O)=O)n1 [Compound I-34] |
| ≤ 50 nM | ≤ 50 nM | ≤ 50 nM | ≤ 50 nM | ≤ 50 nM | ≤ 50 nM | CCc1cc(Nc2ncc(C(F)(F)F)c(Nc3ccc4nccnc4c3N(C)S(C)(=O)=O)n2)c(OC)cc1N1CCC(N2CCN(C)CC2)CC1 [Compound I-35] |
| 50 to 500 nM | ≤ 50 nM | 50 to 500 nM | ≤ 50 nM | ≤ 50 nM | ≤ 50 nM | COc1cc(N2CCN(C)CC2)ccc1Nc1ncc(Br)c(Nc2ccc3nccnc3c2N(C)S(C)(=O)=O)n1 [Compound I-38] |
| ≤ 50 nM | ≤ 50 nM | ≤ 50 nM | ≤ 50 nM | ≤ 50 nM | ≤ 50 nM | COc1cc(N2CCC(N3CCCC3)CC2)ccc1Nc1ncc(Br)c(Nc2ccc3nccnc3c2N(C)S(C)(=O)=O)n1 [Compound I-41] |
| 50 to 500 nM | ≤ 50 nM | 50 to 500 nM | 50 to 500 nM | ≤ 50 nM | 50 to 500 nM | COc1cc(C(=O)N2CCC(N3CCN(C)CC3)CC2)ccc1Nc1ncc(Br)c(Nc2ccc3nccnc3c2N(C)S(C)(=O)=O)n1 [Compound I-48] |
